Experiment [1] relates to TGF-β-stimulated SMAD3 phosphorylation in BEAS-2B cells. Kind of experiment: Cellular ALK5 potency assay, inhibition of TGF-β stimulated pSMAD3 formation in BEAS-2B cells. In kind it is cell-based. Conditions: Homo sapiens, inhibition of TGF-β (10 ng/mL) stimulated pSMAD3 formation, 1 hour compound incubation, read-out: BEAS2B pIC50 (converted). In a few lines:
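Phospho-SMAD3 was quantified by AlphaLISA in lysates of human lung epithelial BEAS-2B cells. Compound was added 1 h (37 °C, HEPES/BSA-supplemented HBSS) before a 30 min challenge with 10 ng/mL TGF-β. Values are pIC50 relative to stimulated cells without compound.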

Experiment [2] has as its target T1, recombinant human ALK5 (TGF-βR1) protein (Homo sapiens, UniProt P36897).
T1 construct: purchased Life Technologies PR9075A
T1 sequence (P36897 34-503): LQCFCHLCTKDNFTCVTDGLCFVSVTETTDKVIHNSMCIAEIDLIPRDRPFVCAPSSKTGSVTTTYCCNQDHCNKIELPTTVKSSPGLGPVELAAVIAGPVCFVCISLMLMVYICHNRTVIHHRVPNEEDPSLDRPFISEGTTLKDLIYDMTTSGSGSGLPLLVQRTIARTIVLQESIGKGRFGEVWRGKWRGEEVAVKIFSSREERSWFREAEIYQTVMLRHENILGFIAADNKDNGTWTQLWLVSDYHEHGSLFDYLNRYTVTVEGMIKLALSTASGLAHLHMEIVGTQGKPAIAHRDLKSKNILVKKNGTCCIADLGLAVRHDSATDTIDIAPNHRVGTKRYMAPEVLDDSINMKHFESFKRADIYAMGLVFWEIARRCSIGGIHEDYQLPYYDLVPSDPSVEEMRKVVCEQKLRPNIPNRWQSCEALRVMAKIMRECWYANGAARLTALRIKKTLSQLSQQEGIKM
Kind of experiment: Biochemical ALK5 (TGF-βR1) assay to measure pKi (LANCE Ultra ULight kinase assay). Conditions: apparent pKi, converted from pIC50 using the Cheng-Prusoff equation. In a few lines:
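TR-FRET kinase format: compound dose range 10 μM–25 pM equilibrated 60 min with human ALK5 and ULight-labelled topoisomerase 2α peptide in HEPES/MgCl2 buffer pH 7.5 with DTT. Reaction started with ATP (125 μM stock, 5× final), 60 min at 37° C, stopped with EDTA/Eu-anti-phospho antibody; pKi derived from pIC50 via Cheng-Prusoff.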
(TR-FRET usually uses a lanthanide donor and a delayed reading to cut background.)

`CN1CCN(C2CCN(c3cnc4ccc(-c5c[nH]nc5-c5cc(Cl)ccc5F)nc4c3)CC2)CC1` [Compound 1-83, 2-[3-(5-chloro-2-fluoro-phenyl)-1H-pyrazol-4-yl]-7-[4-(4-methylpiperazin-1-yl)-1-piperidyl]-1,5-naphthyridine]: the IC50 in experiment [1] is no more than 20 nM. Also, the Ki in experiment [2] was no more than 0.0316 nM.

Regarding `N[C@@H]1CCCC[C@H]1n1cc(-c2cnc3ccc(-c4nc[nH]c4-c4cc(Cl)c(F)cc4F)cc3c2)cn1` [Compound 7-7, (1R,2R)-2-[4-[6-[5-(5-chloro-2,4-difluoro-phenyl)-1H-imidazol-4-yl]-3-quinolyl]pyrazol-1-yl]cyclohexanamine], the IC50 in experiment [1] was 25.1 to 158 nM. Besides, the Ki in experiment [2] was 0.0398 to 0.316 nM.

With `Fc1ccc(Cl)cc1-c1nc2ccccn2c1-c1ccc2ncc(-c3nnn4c3CNCC4)cc2n1` [Compound 3-6, 2-(2-(5-chloro-2-fluorophenyl)imidazo[1,2-a]pyridin-3-yl)-7-(4,5,6,7-tetrahydro-[1,2,3]triazolo[1,5-a]pyrazin-3-yl)-1,5-naphthyridine], the IC50 in experiment [1] is 25.1 to 158 nM. Moreover, the Ki in experiment [2] is 0.0398 to 0.316 nM.

Consider `COCc1cccc(-c2[nH]cnc2-c2ccc3ncc(NCCN4CCN(C(C)C)CC4)cc3n2)c1` [Compound 15-2, N-[2-(4-isopropoylpiperazin-1-yl)ethyl]-6-[5-[3-(methoxymethyl)phenyl]-1H-imidazol-4-yl]-1,5-naphthyridin-3-amine], for which the IC50 in experiment [1] was 200 to 1260 nM. Besides, the Ki in experiment [2] is 3.98 to 31.6 nM.

`COCc1cccc(-c2n[nH]cc2-c2ccc3ncc(N4CCNCC4)cc3n2)c1` [Compound 14-16, 2-[3-[3-(methoxymethyl)phenyl]-1H-pyrazol-4-yl]-7-piperazin-1-yl-1,5-naphthyridine]: the IC50 in experiment [1] was 200 to 1260 nM. Also, the Ki in experiment [2] is 3.98 to 31.6 nM.

Regarding `CC(C)N1CCN(CCNc2cnc3ccc(-c4nc[nH]c4-c4ccc(F)c(F)c4)nc3c2)CC1` [Compound 9-2, 6-[5-(3,4-difluorophenyl)-1H-imidazol-4-yl]-N-[2-(4-isopropylpiperazin-1-yl)ethyl]-1,5-naphthyridin-3-amine], the IC50 in experiment [1] was 25.1 to 158 nM. Besides, the Ki in experiment [2] is 3.98 to 31.6 nM.

As for `CNC1CCN(c2cnc3ccc(-c4nc[nH]c4-c4cc(Cl)ccc4F)nc3c2)CC1` [Compound 2-9, 1-[6-[5-(5-chloro-2-fluoro-phenyl)-1H-imidazol-4-yl]-1,5-naphthyridin-3-yl]-N-methyl-piperidin-4-amine], the IC50 in experiment [1] was 25.1 to 158 nM. For the same compound, in experiment [2], the Ki is no more than 0.0316 nM.

In the case of `CN(C)C1(C)CN(c2cnc3ccc(-c4c[nH]nc4-c4cc(Cl)c(F)cc4F)nc3c2)C1` [Compound 6-20, 1-[6-[3-(5-chloro-2,4-difluoro-phenyl)-1H-pyrazol-4-yl]-1,5-naphthyridin-3-yl]-N,N,3-trimethyl-azetidin-3-amine], the IC50 in experiment [1] was 25.1 to 158 nM. Moreover, the Ki in experiment [2] is 0.398 to 3.16 nM.

In the case of `Fc1ccc(Cl)cc1-c1[nH]cnc1-c1ccc2ncc(-c3nnn4c3CNCC4)cc2n1` [Compound 2-23, 2-[5-(5-chloro-2-fluoro-phenyl)-1H-imidazol-4-yl]-7-(4,5,6,7-tetrahydrotriazolo[1,5-a]pyrazin-3-yl)-1,5-naphthyridine], the IC50 in experiment [1] is 25.1 to 158 nM. The Ki in experiment [2] is 0.0398 to 0.316 nM.

As for `Fc1ccc(Cl)cc1-c1[nH]cnc1-c1ccc2ncc(NCC3CCCCN3)cc2n1` (stereo not drawn) [Compound 2-31, 6-[5-(5-chloro-2-fluoro-phenyl)-1H-imidazol-4-yl]-N-(2-piperidylmethyl)-1,5-naphthyridin-3-amine], the IC50 in experiment [1] is 25.1 to 158 nM. For the same compound, the Ki in experiment [2] is 0.398 to 3.16 nM.

With `Fc1ccc(Cl)cc1-c1[nH]nnc1-c1ccc2ncc(N3CCCNCC3)cc2c1` [Compound 18-7, 6-[5-(5-chloro-2-fluoro-phenyl)-1H-triazol-4-yl]-3-(1,4-diazepan-1-yl)quinoline], in experiment [1], the IC50 is 200 to 1260 nM. For the same compound, the Ki in experiment [2] is 3.98 to 31.6 nM.

Take `Fc1ccc(Cl)cc1-c1n[nH]cc1-c1ccc2ncc(NCCN3CCC3)cc2n1` [Compound 1-8, N-[2-(azetidin-1-yl)ethyl]-6-[3-(5-chloro-2-fluoro-phenyl)-1H-pyrazol-4-yl]-1,5-naphthyridin-3-amine]: the IC50 in experiment [1] is no more than 20 nM. Further, the Ki in experiment [2] is 0.0398 to 0.316 nM.

As for `C[C@@H]1CN(CCNc2cnc3ccc(-c4nc[nH]c4-c4cc(Cl)ccc4F)nc3c2)C[C@H](C)N1` [Compound 2-29, 6-(5-(5-chloro-2-fluorophenyl)-1H-imidazol-4-yl)-N-(2-((3S,5R)-3,5-dimethylpiperazin-1-yl)ethyl)-1,5-naphthyridin-3-amine], in experiment [1], the IC50 was 25.1 to 158 nM. Further, the Ki in experiment [2] is 0.0398 to 0.316 nM.

For `NCCn1cc(-c2cnc3ccc(-c4nc[nH]c4-c4cc(Cl)c(F)cc4F)nc3c2)cn1` [Compound 7-5, 2-[4-[6-[5-(5-chloro-2,4-difluoro-phenyl)-1H-imidazol-4-yl]-1,5-naphthyridin-3-yl]pyrazol-1-yl]ethanamine], the IC50 in experiment [1] was 25.1 to 158 nM. Further, the Ki in experiment [2] is 0.0398 to 0.316 nM.

In the case of `Fc1ccc(Cl)cc1-c1n[nH]cc1-c1ccc2ncc(N3CCn4nc(N5CCNCC5)cc4C3)cc2n1` [Compound 1-128, 2-[3-(5-chloro-2-fluoro-phenyl)-1H-pyrazol-4-yl]-7-(2-piperazin-1-yl-6,7-dihydro-4H-pyrazolo[1,5-a]pyrazin-5-yl)-1,5-naphthyridine], the IC50 in experiment [1] was 200 to 1260 nM. Also, the Ki in experiment [2] is 0.0398 to 0.316 nM.

For `CN(C)C1CC=C(c2cnc3ccc(-c4c[nH]nc4-c4ccc(F)c(F)c4)nc3c2)CC1` (stereo not drawn) [Compound 8-25, 4-[6-[3-(3,4-difluorophenyl)-1H-pyrazol-4-yl]-1,5-naphthyridin-3-yl]-N,N-dimethyl-cyclohex-3-en-1-amine], in experiment [1], the IC50 is 25.1 to 158 nM. Also, the Ki in experiment [2] was 0.0398 to 0.316 nM.

Regarding `CN(C)C1CCN(c2cnc3ccc(-c4c[nH]nc4-c4cc(Cl)c(F)cc4F)nc3c2)C1` (racemic) [Compound 6-22, rac-(3S)-1-[6-[3-(5-chloro-2,4-difluoro-phenyl)-1H-pyrazol-4-yl]-1,5-naphthyridin-3-yl]-N,N-dimethyl-pyrrolidin-3-amine], in experiment [1], the IC50 is 25.1 to 158 nM. Moreover, in experiment [2], the Ki is 0.0398 to 0.316 nM.

As for `Fc1ccc(Cl)cc1-c1[nH]cnc1-c1ccc2ncc(-c3cn[nH]c3)cc2c1` [Compound 17-1, 6-(5-(5-chloro-2-fluorophenyl)-1H-imidazol-4-yl)-3-(1H-pyrazol-4-yl)quinoline], in experiment [1], the IC50 is no more than 20 nM. In addition, the Ki in experiment [2] is 0.0398 to 0.316 nM.

Turning to `Fc1ccc(-c2n[nH]cc2-c2ccc3ncc(-c4cnn(CC5CNC5)c4)cc3n2)cc1F` [Compound 8-15, 7-[1-(azetidin-3-ylmethyl)pyrazol-4-yl]-2-[3-(3,4-difluorophenyl)-1H-pyrazol-4-yl]-1,5-naphthyridine], the IC50 in experiment [1] is 25.1 to 158 nM. In addition, in experiment [2], the Ki is no more than 0.0316 nM.

Take `CN1CC(Nc2cnc3ccc(-c4c[nH]nc4-c4cc(Cl)ccc4F)nc3c2)C1` [Compound 1-7, 6-[3-(5-chloro-2-fluoro-phenyl)-1H-pyrazol-4-yl]-N-(1-methylazetidin-3-yl)-1,5-naphthyridin-3-amine]: the IC50 in experiment [1] is no more than 20 nM. Also, the Ki in experiment [2] is 0.0398 to 0.316 nM.

For `CC(C)N1CCN(c2ccc(Nc3cnc4ccc(-c5c[nH]nc5-c5cc(Cl)ccc5F)nc4c3)nc2)CC1` [Compound 1-30, 6-(3-(5-chloro-2-fluorophenyl)-1H-pyrazol-4-yl)-N-(5-(4-isopropylpiperazin-1-yl)pyridin-2-yl)-1,5-naphthyridin-3-amine], in experiment [1], the IC50 was 25.1 to 158 nM. Also, the Ki in experiment [2] is 0.0398 to 0.316 nM.

The values above are taken from patent US11730720B2, “ALK5 inhibitors” (THERAVANCE BIOPHARMA R&D IP, LLC, priority 2018, dated 2023).
